Biological target: T1, USP28 (His-tagged USP28-FL-mammalian) (Homo sapiens, UniProt Q96RU2)
T1 construct: Expression of USP28 (1-1077)-TEV-6*His (pTT5 vector); made in house; host or cells: Expi293f cells (pTT5 vector)
T1 sequence (Q96RU2 1-1077): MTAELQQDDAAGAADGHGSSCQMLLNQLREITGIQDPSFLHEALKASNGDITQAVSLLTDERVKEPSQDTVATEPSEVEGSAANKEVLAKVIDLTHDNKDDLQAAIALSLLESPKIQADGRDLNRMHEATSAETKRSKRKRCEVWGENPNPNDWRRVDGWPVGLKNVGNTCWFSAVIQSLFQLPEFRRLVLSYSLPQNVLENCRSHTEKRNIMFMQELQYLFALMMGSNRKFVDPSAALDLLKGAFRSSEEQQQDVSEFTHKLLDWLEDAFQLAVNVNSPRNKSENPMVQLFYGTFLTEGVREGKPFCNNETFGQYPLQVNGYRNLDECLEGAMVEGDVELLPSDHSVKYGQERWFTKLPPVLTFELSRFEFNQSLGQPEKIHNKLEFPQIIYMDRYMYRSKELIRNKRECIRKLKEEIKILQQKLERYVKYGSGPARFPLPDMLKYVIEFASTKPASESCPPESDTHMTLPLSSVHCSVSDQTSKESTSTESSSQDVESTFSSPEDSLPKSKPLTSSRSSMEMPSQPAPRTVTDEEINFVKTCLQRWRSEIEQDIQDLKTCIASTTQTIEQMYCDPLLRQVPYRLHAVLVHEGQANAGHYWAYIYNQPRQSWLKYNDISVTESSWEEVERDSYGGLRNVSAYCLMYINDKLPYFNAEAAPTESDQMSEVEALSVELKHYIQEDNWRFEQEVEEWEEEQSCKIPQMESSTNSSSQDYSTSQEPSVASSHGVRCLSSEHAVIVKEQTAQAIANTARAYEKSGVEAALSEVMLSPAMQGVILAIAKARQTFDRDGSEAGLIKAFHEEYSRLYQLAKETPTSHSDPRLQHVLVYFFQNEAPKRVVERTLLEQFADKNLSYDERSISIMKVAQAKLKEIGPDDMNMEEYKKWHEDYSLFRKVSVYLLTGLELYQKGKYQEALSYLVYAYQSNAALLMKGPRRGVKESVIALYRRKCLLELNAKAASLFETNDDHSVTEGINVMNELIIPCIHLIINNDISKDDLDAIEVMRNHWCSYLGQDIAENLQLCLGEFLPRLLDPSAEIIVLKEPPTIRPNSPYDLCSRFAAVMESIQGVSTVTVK
Experiment: Ubiquitin-Rhodamine 110 Assay for USP28 Activity, Example A-1(a)
Format: biochemical
Conditions: Ub-Rh110 assay, Example A-1(a); read-out: USP28 A-1(a) IC50 range
Summary of the method: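 IC50 from 4-parameter logistic fit of percent inhibition versus no-enzyme and DMSO controls; compounds 25 μM to 1.3 nM, 3-fold. Ub-Rh110 cleavage (25 nM, below Km) by […] mammalian-expressed USP28-FL-His ran 45 min at room temperature, stopped with 10 mM citric acid, read ex 485/em 535.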

**Q.** How did the IC50 turn out when `Cc1ccc2c(N)c(C(=O)N[C@@H]3COc4cc(N5CC6CC(C5)N6)ccc4C3)sc2n1` [Example 2-3, N-((3S)-7-(3,6-diazabicyclo[3.1.1]heptan-3-yl)chroman-3-yl)-3-amino-6-methylthieno[2,3-b]pyridine-2-carboxamide] was run?
**A.** 200 to 2000 nM

**Q.** Which IC50 does the source give for `Cc1ccc2c(N)c(C(=O)N[C@H]3COc4cc(N5CCNCC5)ccc4C3)sc2n1` (single isomer, unassigned) [Example 1-1] here?
**A.** 1 to 50 nM

**Q.** With `Cc1nc2sc(C(=O)N[C@H]3COc4cc(N5CCNCC5)ccc4C3)c(N)c2cc1F` (single isomer, unassigned) [Example 1-15] as the molecule, how does the IC50 read?
**A.** 1 to 50 nM

**Q.** How did the IC50 turn out when `Cc1ccc2c(N)c(C(=O)N[C@H]3COc4cc(N5CCNCC5)c(F)cc4C3)sc2n1` [Example 1-35, (R)-3-amino-N-(6-fluoro-7-(piperazin-1-yl)chroman-3-yl)-6-methylthieno[2,3-b]pyridine-2-carboxamide] was run?
**A.** 1 to 50 nM

**Q.** With `Nc1c(C(=O)N[C@H]2COc3cc(N4CC5CC(C4)N5)ccc3C2)sc2nc(F)ccc12` [Example 2-14, N-((3R)-7-(3,6-diazabicyclo[3.1.1]heptan-3-yl)chroman-3-yl)-3-amino-6-fluorothieno[2,3-b]pyridine-2-carboxamide] as the molecule, how does the IC50 read?
**A.** 1 to 50 nM

**Q.** `Cc1ccc2c(N)c(C(=O)N[C@@H]3COc4cc(N5CCN[C@@H](C)[C@@H]5C)ccc4C3)sc2n1` (single isomer, unassigned) [Example 1-14] was tested. Which IC50 did it give?
**A.** 50 to 200 nM

**Q.** How did the IC50 turn out when `[2H]C([2H])([2H])O[C@H]1CN(c2ccc3c(c2)OC[C@H](NC(=O)c2sc4nc(C)ccc4c2N)C3)C[C@@H]1N` [Example 2-38, 3-amino-N-((R)-7-((3S,4S)-3-amino-4-(methoxy-d3)pyrrolidin-1-yl)chroman-3-yl)-6-methylthieno[2,3-b]pyridine-2-carboxamide] was run?
**A.** 50 to 200 nM

**Q.** For `Cc1ccc2c(N)c(C(=O)N[C@H]3COc4cc(N5CCN[C@@H](C)[C@@H]5C)ccc4C3)sc2n1` (single isomer, unassigned) [Example 1-13], which IC50 is on record?
**A.** 50 to 200 nM

**Q.** `Cc1cnc2c(N)c(C(=O)N[C@H]3COc4cc(N5CC6COCC(C5)N6)ccc4C3)sc2n1` [Example 2-12, N-((3R)-7-(3-oxa-7,9-diazabicyclo[3.3.1]nonan-7-yl)chroman-3-yl)-7-amino-3-methylthieno[2,3-b]pyrazine-6-carboxamide] was tested. Which IC50 did it give?
**A.** 50 to 200 nM

**Q.** Which IC50 does the source give for `Cc1ccc2c(N)c(C(=O)N[C@H]3COc4cc(N5CC6CCCC(C5)N6)ccc4C3)sc2n1` (single isomer, unassigned) [Example 1-5] here?
**A.** 1 to 50 nM

**Q.** For `Cc1cc(C)c2c(N)c(C(=O)N[C@H]3COc4cc(N5CCNCC5)c(C#N)c(F)c4C3)sc2n1` [Example 2-32, (R)-3-amino-N-(6-cyano-5-fluoro-7-(piperazin-1-yl)chroman-3-yl)-4,6-dimethylthieno[2,3-b]pyridine-2-carboxamide], which IC50 is on record?
**A.** 1 to 50 nM

**Q.** `Cc1cc(C(F)(F)F)c2c(N)c(C(=O)N[C@H]3COc4cc(N5CC6CC(C5)N6)ccc4C3)sc2n1` [Example 2-21] was tested. Which IC50 did it give?
**A.** 1 to 50 nM

**Q.** Which IC50 does the source give for `Cc1cc(C(F)(F)F)c2c(N)c(C(=O)N[C@H]3COc4cc(N5CC6CNCC(C5)O6)ccc4C3)sc2n1` [Example 2-23, N-((3R)-7-(9-oxa-3,7-diazabicyclo[3.3.1]nonan-3-yl)chroman-3-yl)-3-amino-6-methyl-4-(trifluoromethyl)thieno[2,3-b]pyridine-2-carboxamide] here?
**A.** 1 to 50 nM

**Q.** Which IC50 does the source give for `Cc1ccc2c(N)c(C(=O)N[C@H]3COc4cc(N5CCN[C@H](C)[C@H]5C)ccc4C3)sc2n1` (single isomer, unassigned) [Example 1-11] here?
**A.** 1 to 50 nM

**Q.** `Cc1nc2sc(C(=O)N[C@@H]3COc4cc(N5CCNCC5)ccc4C3)c(N)c2s1` [Example 1-26, (S)-6-amino-2-methyl-N-(7-(piperazin-1-yl)chroman-3-yl)thieno[2,3-d]thiazole-5-carboxamide] was tested. Which IC50 did it give?
**A.** 200 to 2000 nM

**Q.** How did the IC50 turn out when `Cc1ccc2c(N)c(C(=O)N[C@H]3COc4cc(N5CC6CNCC(C5)C6(F)F)c(C#N)cc4C3)sc2n1` [Example 2-33, 3-amino-N-((3R)-6-cyano-7-(9,9-difluoro-3,7-diazabicyclo[3.3.1]nonan-3-yl)chroman-3-yl)-6-methylthieno[2,3-b]pyridine-2-carboxamide] was run?
**A.** 1 to 50 nM

Source: patent publication US11524966B1 (Valo Early Discovery, Inc., priority 2017, dated 2022)
